The target in data set [1] is Protein Tyrosine Kinase, NTRK2 (trkB) (Homo sapiens, UniProt Q16620). Put plainly: Functional assay. The format is biochemical. The note with it: smilagenin 1 μM. As for the experimental part:
(§1) The enzyme activity modulation was investigated using the following method: Sarsasapogenin was incubated with each enzyme plus a specific substrate for each enzyme. After the incubation period the reaction was stopped and the reduction of the specific substrate or the increase in a specific product in the absence and presence of sarsasapogenin was measured and the percent inhibition of the reaction in the presence of sarsasapogenin was calculated. The amount of enzyme used, the incubation conditions, the substrate used and the method of quantification varied depending on each specific assay.
(§2) Using the same methods as described above, the binding of smilagenin (1 μM) to the receptors listed in Table 2 below, and the effect of smilagenin on the activity of the enzymes listed in Table 2 below, were investigated.

Data set [2] deals with Protein Serine/Threonine Kinase, MAPK12 (p38γ) (Homo sapiens, UniProt P53778). Put plainly: Functional assay. The format is biochemical. The conditions noted are these: smilagenin 1 μM. As for the experimental part:
as §1, §2

Data set [3] has as its target Protein Serine/Threonine Kinase, MAP2K1 (MEK1 ) (Homo sapiens, UniProt Q02750). Put plainly: Functional assay. The format is biochemical. The conditions noted are these: smilagenin 1 μM. As for the experimental part:
as §1, §2

The target of data set [4] is Protein Serine/Threonine Kinase, AKT3 (PRKBG) (Homo sapiens, UniProt Q9Y243). Put plainly: Functional assay. The format is biochemical. The conditions noted are these: smilagenin 1 μM. On the procedure: as §1, §2
The target in data set [5] is Protein Serine/Threonine Kinase, MAPK13 (p38δ) (Homo sapiens, UniProt O15264). Kind of data set: Functional assay. The format is biochemical. The conditions noted are these: smilagenin 1 μM. As for the experimental part: as §1, §2
A further data set is described as follows: Functional assay. The format is biochemical. The conditions noted are these: smilagenin 1 μM. On the procedure:
as §1, §2

The target of data set [6] is Protein Serine/Threonine Kinase, AKT1 (PRKBA) (Homo sapiens, UniProt P31749). Put plainly: Functional assay. The format is biochemical. The note with it: smilagenin 1 μM. On the procedure: as §1, §2
For data set [7], the target named is UDP Glucuronosyltransferase, UGT1A1 (Homo sapiens, UniProt P22309). Put plainly: Functional assay. The format is biochemical. The conditions noted are these: smilagenin 1 μM. On the procedure:
as §1, §2

In the next data set the target is Aldose reductase (Rattus norvegicus, UniProt P07943). Put plainly: Functional assay. The format is biochemical. The note with it: smilagenin 1 μM. On the procedure: as §1, §2
Data set [8] deals with Protein Tyrosine Kinase, SRC (Homo sapiens, UniProt P12931). Put plainly: Functional assay. The format is biochemical. The conditions noted are these: smilagenin 1 μM. On the procedure: as §1, §2
For data set [9], the target named is Protein Tyrosine Kinase, NTRK1 (trkA) (Homo sapiens, UniProt P04629). Put plainly: Functional assay. The format is biochemical. The conditions noted are these: smilagenin 1 μM. On the procedure: as §1, §2
The target in data set [10] is Protein Serine/Threonine Kinase, CAMK2D (KCC2D) (Homo sapiens, UniProt Q13557). Put plainly: Functional assay. The format is biochemical. The note with it: smilagenin 1 μM. As for the experimental part:
as §1, §2

In data set [11] the target is Protein Serine/Threonine Kinase, MAPK11 (p38β) (Homo sapiens, UniProt Q15759). Put plainly: Functional assay. The conditions noted are these: smilagenin 1 μM. The format is biochemical. On the procedure: as §1, §2
For data set [12], the target named is Protein Serine/Threonine Kinase, MAPK1 (ERK2) (Homo sapiens, UniProt P28482). Put plainly: Functional assay. The note with it: smilagenin 1 μM. The format is biochemical. As for the experimental part:
as §1, §2

The target in data set [13] is Protein Serine/Threonine Kinase, MAPK8 (JNK1) (Homo sapiens, UniProt P45983). Put plainly: Functional assay. The format is biochemical. The conditions noted are these: smilagenin 1 μM. On the procedure:
as §1, §2

Data set [14] deals with Protein Serine/Threonine Kinase, MAPK3 (ERK1) (Homo sapiens, UniProt P27361). Kind of data set: Functional assay. The format is biochemical. The note with it: smilagenin 1 μM. On the procedure: as §1, §2
A short description of data set [15]: Long term oral toxicity study, mice. The format is in vivo. The conditions noted are these: high doses, up to 52 weeks in mice.
The next data set has as its system pmn mice. Put plainly: Progressive motor neuropathy (pmn) mouse model. The format is in vivo. As for the experimental part:
Affected homozygous +/+ pmn (“pmn mice”) mice were obtained from a breeding colony of extra toe locus(Xt)+/+pmn double heterozygous mice maintained at Neurofit (Illkirch, France). The pmn mice were dosed by oral gavage every day, starting 10 days after birth, just after the initial symptoms of the disease manifest. Sarsasapogenin (0.03, 0.3 and 3 μg/kg/day) was administered to pmn mice as a suspension in oil (10 ml/kg). Electromyographic (EMG) recordings were performed using a standard Neuromatic 2000M electromyograph apparatus in accordance with the guidelines of the American Association of Electrodiagnostic Medicine. Standard behavioural tests (grid, rotarod and hanging tests) performed weekly from day 8 assessed the motor performances of the pmn mice.
The effect of sarsasapogenin on motor function was assessed by recording the amplitude of gastrocnemius evoked motor response (CMAP, an indirect measurement of the number of functional motor neurones).

The next data set deals with T1, Muscarinic M4 (Homo sapiens, UniProt P08173).
T1 construct: host or cells: tissue or cell homogenate, not specified
Put plainly: Receptor binding assay. The note with it: sarsasapogenin 10 μM. As for the experimental part: (§3) The receptor binding was investigated using the following method: Sarsasapogenin was incubated with tissue or cell homogenate that expressed the receptor of interest and a known concentration a radiolabelled compound with affinity for the receptor of interest. After the incubation period the non-bound radiolabelled compound was removed and the amount of specific binding was quantified. The amount of specific binding in the presence and absence of sarsasapogenin were compared and the percent inhibition of the binding of the radiolabelled compound by sarsasapogenin was calculated. The source of the receptor, the incubation conditions, the radiolabelled compound used varied depending on each specific assay.

Another data set concerns the target T2, Dopamine D1 (Homo sapiens, UniProt P21728).
T2 construct: host or cells: tissue or cell homogenate, not specified
Put plainly: Receptor binding assay. The conditions noted are these: sarsasapogenin 10 μM. As for the experimental part: as §3

In a further data set the target is T3, Muscarinic M2 (Homo sapiens, UniProt P08172).
T3 construct: host or cells: tissue or cell homogenate, not specified
Put plainly: Receptor binding assay. The conditions noted are these: sarsasapogenin 10 μM. On the procedure:
as §3

The target of another data set is T4, Muscarinic M3 (Homo sapiens, UniProt P20309).
T4 construct: host or cells: tissue or cell homogenate, not specified
Put plainly: Receptor binding assay. The conditions noted are these: sarsasapogenin 10 μM. On the procedure:
as §3

For the next data set, the target named is T5, Muscarinic M1 (Homo sapiens, UniProt P11229).
T5 construct: host or cells: tissue or cell homogenate, not specified
Kind of data set: Receptor binding assay. The note with it: sarsasapogenin 10 μM. On the procedure:
as §3

Another data set concerns the target T6, Muscarinic M5 (Homo sapiens, UniProt P08912).
T6 construct: host or cells: tissue or cell homogenate, not specified
Kind of data set: Receptor binding assay. The conditions noted are these: sarsasapogenin 10 μM. On the procedure:
as §3

For the next data set, the target named is T7, Glucocorticoid (Homo sapiens, UniProt P04150).
T7 construct: host or cells: tissue or cell homogenate, not specified
Kind of data set: Receptor binding assay. The conditions noted are these: sarsasapogenin 10 μM. As for the experimental part: as §3

For another data set, the target named is Testosterone (Rattus norvegicus, UniProt P15207). Kind of data set: Receptor binding assay. The conditions noted are these: sarsasapogenin 10 μM. On the procedure: as §3
A short description of data set [16]: Long term oral toxicity study, rats. The format is in vivo. The conditions noted are these: high doses, up to 26 week in rats.

Structures are written as SMILES.

Chain of Protein Tyrosine Kinase, NTRK2 (trkB) (Q16620 32-822): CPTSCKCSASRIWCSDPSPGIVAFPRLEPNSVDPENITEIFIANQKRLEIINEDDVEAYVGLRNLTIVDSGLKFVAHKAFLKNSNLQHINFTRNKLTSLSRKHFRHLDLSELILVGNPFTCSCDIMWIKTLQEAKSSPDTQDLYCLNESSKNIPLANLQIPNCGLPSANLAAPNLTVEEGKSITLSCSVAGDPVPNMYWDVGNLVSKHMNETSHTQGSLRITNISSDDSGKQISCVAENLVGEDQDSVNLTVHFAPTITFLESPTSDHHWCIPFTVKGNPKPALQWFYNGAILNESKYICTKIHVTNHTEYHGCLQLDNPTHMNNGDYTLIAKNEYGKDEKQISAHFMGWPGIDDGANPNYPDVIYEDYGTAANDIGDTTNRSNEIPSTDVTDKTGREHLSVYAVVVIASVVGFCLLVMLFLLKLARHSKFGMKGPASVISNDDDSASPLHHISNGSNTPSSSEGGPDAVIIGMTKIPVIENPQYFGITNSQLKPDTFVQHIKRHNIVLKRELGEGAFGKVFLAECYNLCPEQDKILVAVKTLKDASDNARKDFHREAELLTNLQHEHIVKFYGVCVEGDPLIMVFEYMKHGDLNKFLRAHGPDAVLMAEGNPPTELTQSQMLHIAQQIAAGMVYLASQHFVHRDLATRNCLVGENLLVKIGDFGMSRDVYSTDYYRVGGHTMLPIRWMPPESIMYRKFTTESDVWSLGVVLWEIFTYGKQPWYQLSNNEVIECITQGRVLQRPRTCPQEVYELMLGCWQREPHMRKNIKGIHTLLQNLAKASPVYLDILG
Chain of Protein Serine/Threonine Kinase, AKT1 (PRKBA) (P31749 whole entry): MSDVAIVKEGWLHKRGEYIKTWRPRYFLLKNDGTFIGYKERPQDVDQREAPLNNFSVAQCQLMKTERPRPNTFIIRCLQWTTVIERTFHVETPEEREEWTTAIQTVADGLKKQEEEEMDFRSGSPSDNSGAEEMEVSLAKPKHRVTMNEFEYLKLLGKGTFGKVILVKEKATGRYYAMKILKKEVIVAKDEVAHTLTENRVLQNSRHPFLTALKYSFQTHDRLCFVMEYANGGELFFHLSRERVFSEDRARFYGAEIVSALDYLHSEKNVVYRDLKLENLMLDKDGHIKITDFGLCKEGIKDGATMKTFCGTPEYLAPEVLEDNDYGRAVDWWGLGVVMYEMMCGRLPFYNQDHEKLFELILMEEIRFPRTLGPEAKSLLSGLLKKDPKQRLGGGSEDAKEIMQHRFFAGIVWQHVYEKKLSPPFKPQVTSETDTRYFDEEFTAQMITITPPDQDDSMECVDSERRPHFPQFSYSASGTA
Chain of Protein Tyrosine Kinase, NTRK1 (trkA) (P04629 33-796): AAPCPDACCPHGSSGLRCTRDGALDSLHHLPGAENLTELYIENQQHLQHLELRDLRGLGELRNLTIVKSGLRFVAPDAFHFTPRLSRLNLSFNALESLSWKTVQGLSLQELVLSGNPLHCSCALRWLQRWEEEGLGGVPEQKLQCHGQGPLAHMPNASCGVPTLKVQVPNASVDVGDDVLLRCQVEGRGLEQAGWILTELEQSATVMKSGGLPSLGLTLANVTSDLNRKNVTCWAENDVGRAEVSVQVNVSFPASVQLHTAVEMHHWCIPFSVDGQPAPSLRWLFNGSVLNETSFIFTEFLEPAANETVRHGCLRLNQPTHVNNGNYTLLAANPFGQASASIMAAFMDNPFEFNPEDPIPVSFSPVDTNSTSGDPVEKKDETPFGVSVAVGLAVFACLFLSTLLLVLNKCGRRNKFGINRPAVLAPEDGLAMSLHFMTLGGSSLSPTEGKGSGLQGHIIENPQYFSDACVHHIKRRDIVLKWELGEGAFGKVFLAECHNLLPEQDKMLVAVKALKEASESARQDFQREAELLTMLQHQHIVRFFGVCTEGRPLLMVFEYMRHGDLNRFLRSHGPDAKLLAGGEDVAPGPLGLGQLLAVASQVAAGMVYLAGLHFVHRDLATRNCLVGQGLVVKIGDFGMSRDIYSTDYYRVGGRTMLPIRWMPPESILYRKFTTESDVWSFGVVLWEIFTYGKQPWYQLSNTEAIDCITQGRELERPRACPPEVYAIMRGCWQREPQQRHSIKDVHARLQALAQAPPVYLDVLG
Chain of Protein Tyrosine Kinase, SRC (P12931 whole entry): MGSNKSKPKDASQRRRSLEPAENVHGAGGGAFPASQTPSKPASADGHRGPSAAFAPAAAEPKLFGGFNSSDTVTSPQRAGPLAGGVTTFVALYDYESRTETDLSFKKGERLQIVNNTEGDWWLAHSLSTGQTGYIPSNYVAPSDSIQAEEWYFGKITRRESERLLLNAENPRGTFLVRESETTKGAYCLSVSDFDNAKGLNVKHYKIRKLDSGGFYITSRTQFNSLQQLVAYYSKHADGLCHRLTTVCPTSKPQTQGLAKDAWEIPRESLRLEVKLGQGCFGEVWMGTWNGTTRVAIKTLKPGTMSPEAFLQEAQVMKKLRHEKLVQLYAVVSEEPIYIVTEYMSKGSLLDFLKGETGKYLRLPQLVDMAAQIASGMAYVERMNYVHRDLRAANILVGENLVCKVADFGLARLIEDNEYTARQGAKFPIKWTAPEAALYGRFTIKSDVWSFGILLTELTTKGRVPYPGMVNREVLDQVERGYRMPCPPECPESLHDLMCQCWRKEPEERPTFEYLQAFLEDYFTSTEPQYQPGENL
T1 sequence (P08173 whole entry): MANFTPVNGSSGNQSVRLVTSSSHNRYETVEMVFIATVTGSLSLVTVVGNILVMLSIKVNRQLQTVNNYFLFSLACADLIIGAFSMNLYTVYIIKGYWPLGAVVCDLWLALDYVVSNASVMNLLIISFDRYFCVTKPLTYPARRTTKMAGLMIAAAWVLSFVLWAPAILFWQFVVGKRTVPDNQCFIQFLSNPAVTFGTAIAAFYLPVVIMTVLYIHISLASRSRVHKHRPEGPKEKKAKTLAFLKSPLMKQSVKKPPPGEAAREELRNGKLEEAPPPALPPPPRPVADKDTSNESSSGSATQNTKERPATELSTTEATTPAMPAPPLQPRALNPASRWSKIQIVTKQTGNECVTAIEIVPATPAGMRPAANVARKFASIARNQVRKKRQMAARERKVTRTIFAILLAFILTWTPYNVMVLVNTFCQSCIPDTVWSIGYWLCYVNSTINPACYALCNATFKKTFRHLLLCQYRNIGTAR
Chain of Protein Serine/Threonine Kinase, MAPK12 (p38γ) (P53778 whole entry): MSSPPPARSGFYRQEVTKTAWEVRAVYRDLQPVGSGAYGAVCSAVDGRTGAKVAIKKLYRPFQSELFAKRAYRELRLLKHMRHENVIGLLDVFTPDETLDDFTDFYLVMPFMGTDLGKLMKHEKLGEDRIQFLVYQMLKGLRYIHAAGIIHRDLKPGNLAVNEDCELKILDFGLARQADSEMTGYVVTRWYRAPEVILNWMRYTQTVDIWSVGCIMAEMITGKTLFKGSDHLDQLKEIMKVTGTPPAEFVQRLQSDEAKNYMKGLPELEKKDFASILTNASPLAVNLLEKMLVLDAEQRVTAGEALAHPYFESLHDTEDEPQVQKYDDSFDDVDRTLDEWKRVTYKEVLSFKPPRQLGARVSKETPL
T7 sequence (P04150 whole entry): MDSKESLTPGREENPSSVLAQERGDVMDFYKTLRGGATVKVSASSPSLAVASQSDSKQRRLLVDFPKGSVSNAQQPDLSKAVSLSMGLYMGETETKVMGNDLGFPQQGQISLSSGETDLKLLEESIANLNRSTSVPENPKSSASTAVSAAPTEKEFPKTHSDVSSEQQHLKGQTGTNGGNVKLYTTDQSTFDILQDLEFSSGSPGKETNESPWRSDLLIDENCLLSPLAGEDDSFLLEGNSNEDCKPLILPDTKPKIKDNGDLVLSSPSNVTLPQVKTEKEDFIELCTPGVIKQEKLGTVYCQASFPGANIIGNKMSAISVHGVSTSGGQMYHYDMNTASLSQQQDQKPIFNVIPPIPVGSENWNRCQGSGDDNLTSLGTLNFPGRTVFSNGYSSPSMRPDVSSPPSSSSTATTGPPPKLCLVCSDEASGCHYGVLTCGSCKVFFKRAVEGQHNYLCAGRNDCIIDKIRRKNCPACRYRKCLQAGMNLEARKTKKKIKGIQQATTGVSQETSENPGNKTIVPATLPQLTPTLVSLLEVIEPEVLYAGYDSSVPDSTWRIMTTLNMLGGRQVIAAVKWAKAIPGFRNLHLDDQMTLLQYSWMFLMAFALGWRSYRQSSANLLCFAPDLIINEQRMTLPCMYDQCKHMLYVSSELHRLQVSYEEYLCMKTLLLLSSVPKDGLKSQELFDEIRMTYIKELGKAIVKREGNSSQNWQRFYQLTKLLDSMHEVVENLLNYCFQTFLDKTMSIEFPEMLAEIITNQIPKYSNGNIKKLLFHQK
Chain of Protein Serine/Threonine Kinase, MAPK13 (p38δ) (O15264 whole entry): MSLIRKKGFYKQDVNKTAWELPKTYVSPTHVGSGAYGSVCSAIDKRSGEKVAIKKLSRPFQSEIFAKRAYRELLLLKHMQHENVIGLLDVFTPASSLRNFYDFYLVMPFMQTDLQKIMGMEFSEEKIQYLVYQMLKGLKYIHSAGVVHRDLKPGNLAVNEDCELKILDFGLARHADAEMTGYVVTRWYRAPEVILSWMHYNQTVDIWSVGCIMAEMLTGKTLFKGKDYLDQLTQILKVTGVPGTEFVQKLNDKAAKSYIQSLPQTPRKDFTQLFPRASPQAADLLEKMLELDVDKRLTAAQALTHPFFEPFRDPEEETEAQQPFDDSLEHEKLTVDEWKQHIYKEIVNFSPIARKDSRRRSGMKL
Chain of Protein Serine/Threonine Kinase, MAP2K1 (MEK1 ) (Q02750 whole entry): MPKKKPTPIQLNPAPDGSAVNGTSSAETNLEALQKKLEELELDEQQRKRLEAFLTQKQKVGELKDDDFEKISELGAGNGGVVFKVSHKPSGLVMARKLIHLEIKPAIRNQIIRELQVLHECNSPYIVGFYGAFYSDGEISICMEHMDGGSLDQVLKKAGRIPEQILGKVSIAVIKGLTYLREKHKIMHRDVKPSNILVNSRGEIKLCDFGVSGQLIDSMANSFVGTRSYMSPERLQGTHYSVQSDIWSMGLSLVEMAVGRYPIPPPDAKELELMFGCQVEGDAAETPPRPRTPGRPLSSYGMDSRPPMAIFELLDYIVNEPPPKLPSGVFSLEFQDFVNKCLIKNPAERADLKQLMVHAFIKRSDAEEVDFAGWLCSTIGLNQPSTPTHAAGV

As for `C[C@@H]1CC[C@@]2(OC1)O[C@H]1C[C@H]3[C@@H]4CC[C@@H]5C[C@@H](O)CC[C@]5(C)[C@H]4CC[C@]3(C)[C@H]1[C@@H]2C` [Smilagenin, smilagenin], the “Effect (%)” value (in data set [1]; in data set [2]; in [3]; in data set [4]; in data set [5]; in the data set “Functional assay”) was “NS (NS = No significant response. Significance was taken as ≧30% stimulation or inhibition)” throughout. Also, the “Effect (%)” value (in data set [6]; in [7]; on Aldose reductase; in [8]; in data set [9]; in data set [10]) was “NS (NS = No significant response. Significance was taken as ≧30% stimulation or inhibition)” each time. The “Effect (%)” value in data set [11], in [12], in data set [13] and in data set [14] was “NS (NS = No significant response. Significance was taken as ≧30% stimulation or inhibition)” each time. For the same compound, the Long term toxicity entry in [15] was “without showing any signs of toxicity or adverse events”.

Take `C[C@H]1CC[C@@]2(OC1)O[C@H]1C[C@H]3[C@@H]4CC[C@@H]5C[C@@H](O)CC[C@]5(C)[C@H]4CC[C@]3(C)[C@H]1[C@@H]2C` [Sarsasapogenin, sarsasapogenin]: in the data set with pmn mice (0.03 μg/kg/day oral, lowest tested dosage), the “Progression of the motor neurone degeneration” value is given as “does not delay the progression of the motor neurone degeneration”. Further, the “Amplitude of CMAP (motor function)” value with pmn mice (0.3 μg/kg/day oral from day 10 after birth, p<0.001) was “delayed the deterioration of motor function”. Also, in the data set with pmn mice (0.3 μg/kg/day oral, after symptoms manifest, p=0.006), the “Increase of survival (lifespan) of pmn mice compared to control” value was “up to 62%”. Further, in the data set on pmn mice (0.3 μg/kg/day oral, p=0.02 vs pmn control), the “Rotarod and grid test performances” value was “significantly delayed the deterioration in the rotarod and grid test performances”. The “Effect (%)” value on Muscarinic M4, at Dopamine D1, on Muscarinic M2, at Muscarinic M3, at Muscarinic M1 and on Muscarinic M5 was “NS (NS = No significant response. Significance was taken as ≧30% stimulation or inhibition)” in each case. For the same compound, the “Effect (%)” value at Glucocorticoid and at Testosterone was “NS (NS = No significant response. Significance was taken as ≧30% stimulation or inhibition)” in each case. The Long term toxicity result in [16] is “without showing any signs of toxicity or adverse events”.
